Experiments:
C57BL/6 mice = test: Head twitch response (HTR) to 4-HO-MET after vehicle or daridorexant pre-treatment; format: in vivo, mouse; conditions: 4-HO-MET 0.32-3.2 mg/kg s.c.; vehicle (0.5% methylcellulose) pretreatment; 20 min period; FIG. 5
Protocol: Administration of 5-HT2A receptor agonists in mice induces a robust head twitch response (HTR). The number of head twitches observed in mice is recognized as an indicator of the degree of psychedelic effects (Halberstadt et al 2020). To determine whether the HTR induced by 5-HT2A receptor agonists is modulated by dual orexin receptor antagonists, a study was performed comparing the HTR induced by a 5-HT2A receptor agonist, 4-hydroxy-N-methyl-N-ethyltryptamine (4-HO-MET), after pre-treatment with either vehicle or the dual orexin receptor antagonist daridorexant.
Male C57BL/6 mice (˜6-8 Week; Hylasco, Hyderabad, India) were pair-housed under standard conditions on a 12-h light cycle with free access to food and water. On the test day, mice were randomly assigned to one of 6 treatment groups (see Table 1 below). Mice were dosed orally with 0.5% methylcellulose or daridorexant at t=−30 min followed by a subcutaneous (s.c.) injection of 4-HO-MET (0.32, 1, or 3.2 mg/kg) at t=0 min. Mice were then immediately placed in a chamber and the number of head twitches in a 20 min period post 4-HO-MET injection (t=0-20 min) were counted manually by a blinded, trained observer.

individuals = conditions: anecdotal; individuals who fell asleep while taking LSD; more than 12 hours after the dose; cited from earlier work
[1] = test system: sleep-wake behaviour in Sprague Dawley rats; test: EEG/EMG sleep-wake study of daridorexant, psilocybin and their combination; format: in vivo, rat
Protocol: The aim of this study was to investigate the effects of daridorexant, psilocybin, and the combination of the two compounds, on sleep-wake behaviour in Sprague Dawley rats, across the circadian cycle. Daridorexant is a dual orexin receptor antagonist used for treating insomnia. Psilocybin is a 5-HT2A receptor agonist with psychedelic properties and relatively short half-life. The study was conducted at Transpharmation, UK, under Study IDs EEG079a and EEG079c.
8 male Sprague Dawley rats (Charles River, UK) were used in the study. Animals were housed in groups of 2-3 with standard conditions. Average weight at start of dosing was 433-517 g, corresponding to ˜ 14 weeks old.
The animals were anaesthetised with isoflurane (2-5% in oxygen at 1 L/min) throughout the procedure. The scalp, neck, and right flank were cleared of hair using clippers and cleaned using diluted Hibitane (50% (v/v) in water). A non-steroidal anti-inflammatory agent was administered (Carprofen 5 mg/kg, subcutaneously (s.c.)) and the animals placed on a homeothermic blanket (37° C.) with the head fixed in a stereotaxic frame. Incisions were made in the scalp and neck, as well as in the right flank. Blunt dissection of the abdominal muscle was then made to gain access to the peritoneal cavity. A radio transmitter (HD-S02, Data Sciences International) was implanted in the peritoneal cavity and secured to the muscle wall with non-absorbable sutures. The wires of the transmitter were passed using a 16 G needle through the muscle wall and then sub-dermally to the scalp to act as EEG/EMG electrodes. The scalp was cleared of connective tissue and two craniotomies were made with a trepanning drill (fronto-parietal coordinates; Bregma+2 mm anterior, midline+1.0 mm lateral, and Lambda 0 mm, +1.5 mm lateral). The positive EEG electrode was attached to the anterior craniotomy and the negative EEG electrode to the posterior craniotomy. Both electrodes were secured in place using a suitable adhesive agent (cyanoacrylate gel, RS components). A second set of electrodes were sutured into the nuchal muscle to act as EMG electrodes. All incisions were closed using absorbable suture.
All animals were allowed to recover in a warm environment and given 5 mL of saline s.c. Animals were kept singly in the cage until the next day, then pair housed for the duration of post-surgical recovery (minimum 7 days). During the recovery period the rats received 5 days of standard post-operative care with no further experimental procedures until the pre-operative body weight was regained. The animals were maintained on a 12/12 h light-dark cycle (08:00 am lights on) after the surgery.
On study days, at ˜30 min after lights-on, animals were placed in recording boxes similar to their home cages and data acquisition was begun for confirmation of signal quality. After 30 min, each animal was briefly removed from its box to be dosed (see schedule below). Animals were immediately put back into the recording boxes, the experimenter left the room, and recordings continued uninterrupted for ˜23 h. At the end of the recording session, the transmitters were turned off and the animals were returned to their home cages. Animals received treatment conditions in a pseudo randomised cross-over fashion with a minimum period of 7 days between doses.
Daridorexant was administered p.o. at a volume of 5 mL/kg with 0.5% methylcellulose vehicle (Vehicle 1), at doses of 30 mg/kg or 100 mg/kg. Psilocybin was administered s.c. at a volume of 3 mL/kg with saline vehicle (Vehicle 2), at doses of 0.5 mg/kg, 1 mg/kg, or 3 mg/kg.
EEG, EMG, and locomotor activity data were acquired for ˜23 h post dosing using intraperitoneal HD-S02 transmitters (DSI, New Brighton, MN) and Spike2 software (CED, Cambridge UK). EEG/EMG signals were amplified, analogue filtered (0.5-100 Hz), digitized (256 Hz), and then digitally filtered (EEG: 0.5-100 Hz and EMG: 70-100 Hz). […]

[2] = test system: patients with major depressive disorder (MDD); conditions: discontinued Phase II study; cited from earlier work
[3] = test system: major depressive disorder (MDD); conditions: cited from earlier work
[4] = first 4 h after dosing, daridorexant at both 30 and 100 mg/kg p.o., FIG. 1B

## CCN(C)CCc1c[nH]c2cccc(O)c12 [4-HO-MET, 4-hydroxy-N-methyl-N-ethyltryptamine]
C57BL/6 mice
  number of head twitches (HTR): produced HTR in a dose-dependent manner

## CCN(CC)C(=O)[C@@H]1C=C2c3cccc4[nH]cc(c34)C[C@H]2N(C)C1 [LSD, lysergic acid diethylamide]
individuals
  next day creativity and vigor: next day enhanced creativity and vigor

## COc1ccc(-n2nccn2)c(C(=O)N2CCC[C@@]2(C)c2nc3c(C)c(Cl)ccc3[nH]2)c1 [daridorexant]
[1]; first 2 h after dosing, daridorexant alone 30, 100 mg/kg, FIG. 3A
  percentage of time spent in Wake across 22 h: wakefulness reduction
[1]; first 2 h after dosing, daridorexant alone 30, 100 mg/kg, FIG. 3B
  percentage of time spent in NREM across 22 h: promotion of NREM and REM sleep
[1]; first 2 h after dosing, daridorexant alone 30, 100 mg/kg, FIG. 3C
  percentage of time spent in REM across 22 h: promotion of NREM and REM sleep
[1]; [4]
  percentage of time spent in Wake: acutely reduced wakefulness for the first 2 h after dosing
  percentage of time spent in sleep (NREM, REM): promoting sleep, especially NREM sleep
[1]; psilocybin 1, 3 mg/kg, daridorexant 30, 100 mg/kg, combinations D100+P1, D30+P1, FIG. 2A
  REM sleep onset latency: dose-dependent decrease
[1]; psilocybin 1, 3 mg/kg, daridorexant 30, 100 mg/kg, combinations D100+P1, D30+P1, FIG. 2B
  NREM sleep onset latency: reduction

## Cc1ccc(-c2ncccn2)c(C(=O)N2C[C@H](COc3ccc(F)cn3)CC[C@H]2C)c1 [filorexant]
[2]
  separation from placebo in MDD: did not separate from placebo

## Cc1cc(C)nc(N2CC3CN(C(=O)c4c(F)cccc4-n4nccn4)CC3C2)n1 (stereo not drawn) [seltorexant, Seltorexant]
[3]; compared to placebo
  (left posterior) EEG power: overall increase
  delta power during stage 2 sleep: relative increase
  theta, alpha, and beta power during stage 2 sleep: decrease
[3]; continued treatment up to 28 days
  antidepressant efficacy with continued treatment: maintained
[3]; ten days of treatment, seen at day 11
  core depressive symptoms compared to placebo: significant improvement

— patent US20240216339A1, “METHODS OF TREATING NEUROPSYCHIATRIC DISORDERS” (GILGAMESH PHARMACEUTICALS, INC., priority 2021, published 2024)
